Measurements taken from patent US20170107229A1, “SUBSTITUTED TETRAHYDROPYRIDOTHIENOPYRIMIDINES” (BAYER PHARMA AKTIENGESELLSCHAFT, priority 2014, published 2017).
pIC50: −log10 of the molar value.

Molecular target: T1, human full-length MKNK1 (Homo sapiens, UniProt Q9BUB5, T385D)
T1 construct: GST (N); purchased Carna Biosciences 02-145; host or cells: insect cells (baculovirus expression system)
Test: MKNK1 kinase high ATP assay (TR-FRET)
Assay type: biochemical
Details: high ATP (2 mM final), 15 min preincubation with enzyme, GST-MKNK1 (T344D)
Description: MKNK1-inhibitory activity at high ATP of compounds of the present invention after their preincubation with MKNK1 was quantified employing the TR-FRET-based MKNK1 high ATP assay as described in the following paragraphs.
A recombinant fusion protein of Glutathione-S-Transferase (GST, N-terminally) and human full-length MKNK1 (amino acids 1-424 and T344D of accession number BAA 19885.1), expressed in insect cells using baculovirus expression system and purified via glutathione sepharose affinity chromatography, was purchased from Carna Biosciences (product no 02-145) and used as enzyme. As substrate for the kinase reaction the biotinylated peptide biotin-Ahx-IKKRKLTRRKSLKG (C-terminus in amide form) was used, which can be purchased e.g. from the company Biosyntan (Berlin-Buch, Germany).
For the assay 50 nL of a 100fold concentrated solution of the test compound in DMSO was pipetted into a black low volume 384well microtiter plate (Greiner Bio-One, Frickenhausen, Germany), 2 μL of a solution of MKNK1 in aqueous assay buffer [50 mM HEPES pH 7.5, 5 mM MgCl2, 1.0 mM dithiothreitol, 0.005% (v/v) Nonidet-P40 (Sigma)] was added and the mixture was incubated for 15 min at 22° C. to allow pre-binding of the test compounds to the enzyme before the start of the kinase reaction. Then the kinase reaction was started by the addition of 3 μL of a solution of adenosine-tri-phosphate (ATP, 3.3 mM=>final conc. in the 5 μL assay volume is 2 mM) and substrate (0.1 μM=>final conc. in the 5 μL assay volume is 0.06 μM) in assay buffer and the resulting mixture was incubated for a reaction time of 30 min at 22° C. The concentration of MKNK1 was adjusted depending of the activity of the enzyme lot and was chosen appropriate to have the assay in the linear range, typical concentrations were in the range of 0.003 μg/mL. The reaction was stopped by the addition of 5 μL of a solution of TR-FRET detection reagents (5 nM streptavidine-XL665 [Cisbio Bioassays, Codolet, France] and 1 nM anti-ribosomal protein S6 (pSer236)-antibody from Invitrogen [#44921G] and 1 nM LANCE EU-W1024 labeled ProteinG [Perkin-Elmer, product no. AD0071]) in an aqueous EDTA-solution (100 mM EDTA, 0.1% (w/v) bovine serum albumin in 50 mM HEPES pH 7.5).
The resulting mixture was incubated for 1 h at 22° C. to allow the formation of complex between the phosphorylated biotinylated peptide and the detection reagents. Subsequently the amount of phosphorylated substrate was evaluated by measurement of the resonance energy transfer from the Eu-chelate to the streptavidine-XL. Therefore, the fluorescence emissions at 620 nm and 665 nm after excitation at 350 nm were measured in a TR-FRET reader, e.g. a Rubystar (BMG Labtechnologies, Offenburg, Germany) or a Viewlux (Perkin-Elmer). The ratio of the emissions at 665 nm and at […] was taken as the measure for the amount of phosphorylated substrate. The data were normalised (enzyme reaction without inhibitor=0% inhibition, all other assay components but no enzyme=100% inhibition).

T1 sequence (Q9BUB5 1-424 isoform Q9BUB5-2 T344D): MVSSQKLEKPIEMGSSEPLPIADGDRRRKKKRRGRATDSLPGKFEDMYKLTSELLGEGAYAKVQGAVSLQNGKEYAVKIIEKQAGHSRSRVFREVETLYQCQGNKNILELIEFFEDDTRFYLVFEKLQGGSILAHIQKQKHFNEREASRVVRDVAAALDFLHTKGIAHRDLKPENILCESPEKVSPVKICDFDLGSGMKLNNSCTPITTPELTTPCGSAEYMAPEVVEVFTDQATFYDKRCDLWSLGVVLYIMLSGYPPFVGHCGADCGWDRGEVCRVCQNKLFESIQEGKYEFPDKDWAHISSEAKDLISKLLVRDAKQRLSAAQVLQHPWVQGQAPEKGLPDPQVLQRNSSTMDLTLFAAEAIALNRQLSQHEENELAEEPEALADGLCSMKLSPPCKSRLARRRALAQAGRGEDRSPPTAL

Row | SMILES | pIC50
1 | CN(C)C(=O)N1CCc2c(sc3ncnc(Nc4cc5cn[nH]c5cc4Br)c23)C1 [Example 29, 4-[(6-Bromo-1H-indazol-5-yl)amino]-N,N-dimethyl-5,8-dihydropyrido[4′,3′:4,5]thieno[2,3-d]pyrimidine-7(6H)-carboxamide] | 7.43
2 | CN(C)C(=O)N1CCc2c(sc3ncnc(Nc4ccn5nccc5c4)c23)C1 [Example 30, N,N-Dimethyl-4-(pyrazolo[1,5-a]pyridin-5-ylamino)-5,8-dihydropyrido[4′,3′:4,5]thieno[2,3-d]pyrimidine-7(6H)-carboxamide] | 6.32
3 | C[C@@H]1CN(C(=O)N2CCc3c(sc4ncnc(Nc5ccc6[nH]c(=O)sc6c5)c34)C2)C[C@H](C)O1 [Example 31, 6-[(7-{[(2R,6S)-2,6-Dimethylmorpholin-4-yl]carbonyl}-5,6,7,8-tetrahydropyrido[4′,3′:4,5]thieno[2,3-d]pyrimidin-4-yl)amino]-1,3-benzothiazol-2(3H)-one] | 7.23
4 | COc1cc2[nH]ncc2cc1Nc1ncnc2sc3c(c12)CCN(C(=O)N1C[C@@H](C)O[C@@H](C)C1)C3 [Example 32, [(2R,6S)-2,6-Dimethylmorpholin-4-yl]{4-[(6-methoxy-1H-indazol-5-yl)amino]-5,8-dihydropyrido[4′,3′:4,5]thieno[2,3-d]pyrimidin-7(6H)-yl}methanone] | 8.00
5 | C[C@@H]1CN(C(=O)N2CCc3c(sc4ncnc(Nc5ccc6[nH]ncc6c5)c34)C2)C[C@H](C)O1 [Example 33, [(2R,6S)-2,6-Dimethylmorpholin-4-yl][4-(1H-indazol-5-ylamino)-5,8-dihydropyrido[4′,3′:4,5]thieno[2,3-d]pyrimidin-7(6H)-yl]methanone] | 7.68
6 | C[C@@H]1CN(C(=O)N2CCc3c(sc4ncnc(Nc5cc6cn[nH]c6cn5)c34)C2)C[C@H](C)O1 [Example 34, [(2R,6S)-2,6-Dimethylmorpholin-4-yl][4-(1H-pyrazolo[3,4-c]pyridin-5-ylamino)-5,8-dihydropyrido[4′,3′:4,5]thieno[2,3-d]pyrimidin-7(6H)-yl]methanone] | 7.15
7 | C[C@@H]1CN(C(=O)N2CCc3c(sc4ncnc(Nc5cnc6[nH]ncc6c5)c34)C2)C[C@H](C)O1 [Example 35, [(2R,6S)-2,6-Dimethylmorpholin-4-yl][4-(1H-pyrazolo[3,4-b]pyridin-5-ylamino)-5,8-dihydropyrido[4′,3′:4,5]thieno[2,3-d]pyrimidin-7(6H)-yl]methanone] | 7.57
8 | CS(=O)(=O)N1CCc2c(sc3ncnc(Nc4ccn5nccc5c4)c23)C1 [Example 36, 7-(Methylsulfonyl)-N-(pyrazolo[1,5-a]pyridin-5-yl)-5,6,7,8-tetrahydropyrido[4′,3′:4,5]thieno[2,3-d]pyrimidin-4-amine] | 6.80
9 | COc1cc2[nH]ncc2cc1Nc1ncnc2sc3c(c12)CCN(S(C)(=O)=O)C3 [Example 37, N-(6-Methoxy-1H-indazol-5-yl)-7-(methylsulfonyl)-5,6,7,8-tetrahydropyrido[4′,3′:4,5]thieno[2,3-d]pyrimidin-4-amine] | 8.52
10 | CS(=O)(=O)N1CCc2c(sc3ncnc(Nc4ccc5[nH]ncc5c4)c23)C1 [Example 38, N-(1H-Indazol-5-yl)-7-(methylsulfonyl)-5,6,7,8-tetrahydropyrido[4′,3′:4,5]thieno[2,3-d]pyrimidin-4-amine] | 7.17
11 | CS(=O)(=O)N1CCc2c(sc3ncnc(Nc4ccc5[nH]c(=O)sc5c4)c23)C1 [Example 39, 6-{[7-(Methylsulfonyl)-5,6,7,8-tetrahydropyrido[4′,3′:4,5]thieno[2,3-d]pyrimidin-4-yl]amino}-1,3-benzothiazol-2(3H)-one] | 6.50
12 | CS(=O)(=O)N1CCc2c(sc3ncnc(Nc4cnc5[nH]ncc5c4)c23)C1 [Example 40, 7-(Methylsulfonyl)-N-(1H-pyrazolo[3,4-b]pyridin-5-yl)-5,6,7,8-tetrahydropyrido[4′,3′:4,5]thieno[2,3-d]pyrimidin-4-amine] | 6.86
